BindingDB's records for doi:10.1021/jm00065a013 (Washington University, 1993)
*1 amine or outer side, *2 acyl side, *3 side chain or, on linkers, in order; H or OH if unused. Where a SMILES comes first, the peptide text is derived from it. Bridges are numbered along the chain shown (N, C = ends). Roman numbers before positions name the chains, in order. [ ]: non-standard residue; d: D form. Pro(4R-SH) = O=C([C@@H]1C[C@@H](S[*:3])CN1[*:1])[*:2]; Pro(4S-SH) = O=C([C@@H]1C[C@H](S[*:3])CN1[*:1])[*:2]; hCys = N[C@@H](CCS)C(=O)O; Sar = CNCC(=O)O

Target: Type-2 angiotensin II receptor (Oryctolagus cuniculus)
Experiment: In vitro binding affinity at angiotensin II (type 2) receptor in rabbit uterus.

Row | SMILES | IC50
1 | CNCC(=O)N[C@@H](CCCNC(=N)N)C(=O)N[C@H]1CCSSCC[C@@H](C(=O)N[C@@H](Cc2cnc[nH]2)C(=O)N2CCC[C@H]2C(=O)N[C@@H](Cc2ccccc2)C(=O)O)NC(=O)[C@H](Cc2ccc(O)cc2)NC1=O [2-({1-[2-{[11-[5-Guanidino-2-(2-methylamino-acetylamino)-pentanoylamino]-8-(4-hydroxy-benzyl)-7,10-dioxo-1,2-dithia-6,9-diaza-cyclotridecane-5-carbonyl]-amino}-3-(3H-imidazol-4-yl)-propionyl]-pyrrolidine-2-carbonyl}-amino)-3-phenyl-propionic acid] (H-[Sar]R[hCys]Y[hCys]HPF-OH; disulfide 3-5) | 80 nM
2 | CNCC(=O)N[C@@H](CCCN=C(N)N)C(=O)N[C@H]1CC(=O)NCCCC[C@@H](C(=O)N[C@@H](Cc2c[nH]cn2)C(=O)N2CCC[C@H]2C(=O)N[C@@H](Cc2ccccc2)C(=O)O)NC(=O)[C@H](Cc2ccc(O)cc2)NC1=O [c[Sar1-Arg2-Asp3-Tyr4-Lys5-His6-Pro7-Phe8]] (H-[Sar]RDYKHPF-OH; lactam 3-5) | 86 nM
3 | CNCC(=O)N[C@@H](CCCNC(=N)N)C(=O)N[C@H]1CSS[C@@H]2C[C@@H](C(=O)N[C@@H](Cc3cnc[nH]3)C(=O)N3CCC[C@H]3C(=O)N[C@@H](Cc3ccccc3)C(=O)O)N(C2)C(=O)[C@H](Cc2ccc(O)cc2)NC1=O [c[Sar1-Arg2-Cys3-Tyr4-MPt5-His6-Pro7-Phe8]] (H-[Sar]RCY[Pro(4R-SH)]HPF-OH; disulfide 3-5) | 0.82 nM
4 | CNCC(=O)N[C@@H](CCCNC(=N)N)C(=O)N[C@H]1CCSS[C@H]2C[C@@H](C(=O)N[C@@H](Cc3cnc[nH]3)C(=O)N3CCC[C@H]3C(=O)N[C@@H](Cc3ccccc3)C(=O)O)N(C2)C(=O)[C@H](Cc2ccc(O)cc2)NC1=O [c[Sar1-Arg2-Hcy3-Tyr4-MPc5-His6-Pro7-Phe8]] (H-[Sar]R[hCys]Y[Pro(4S-SH)]HPF-OH; disulfide 3-5) | 9.1 nM
5 | CNCC(=O)N[C@@H](CCCNC(=N)N)C(=O)N1C[C@@H]2C[C@H]1C(=O)N[C@@H](Cc1ccc(O)cc1)C(=O)N[C@H](C(=O)N[C@@H](Cc1cnc[nH]1)C(=O)N1CCC[C@H]1C(=O)N[C@@H](Cc1ccccc1)C(=O)O)CSS2 [c[Sar1-Arg2-MPc3-Tyr4-Cys5-His6-Pro7-Phe8]] (H-[Sar]R[Pro(4S-SH)]YCHPF-OH; disulfide 3-5) | 12 nM

Other lines, results leading:

Row | IC50 | SMILES
6 | 25 nM | CNCC(=O)N[C@@H](CCCNC(=N)N)C(=O)N1C[C@@H]2C[C@H]1C(=O)N[C@@H](Cc1ccc(O)cc1)C(=O)N[C@H](C(=O)N[C@@H](Cc1cnc[nH]1)C(=O)N1CCC[C@H]1C(=O)N[C@@H](Cc1ccccc1)C(=O)O)CSS[C@H]1C[C@@H](C(=O)N[C@@H](Cc3ccc(O)cc3)C(=O)N[C@H](C(=O)N[C@@H](Cc3cnc[nH]3)C(=O)N3CCC[C@H]3C(=O)N[C@@H](Cc3ccccc3)C(=O)O)CSS2)N(C(=O)[C@H](CCCNC(=N)N)NC(=O)CNC)C1 [bis c[Sar1-Arg2-MPc3-Tyr4-Cys5-His6-Pro7-Phe8]antiparallel] (I: H-[Sar]R[Pro(4S-SH)]YCHPF-OH / II: H-[Sar]R[Pro(4S-SH)]YCHPF-OH; disulfide I:3-II:5, I:5-II:3)
7 | 23 nM | CNCC(=O)N[C@@H](CCCNC(=N)N)C(=O)N1C[C@@H]2C[C@H]1C(=O)N[C@@H](Cc1ccc(O)cc1)C(=O)N[C@H](C(=O)N[C@@H](Cc1cnc[nH]1)C(=O)N1CCC[C@H]1C(=O)N[C@@H](Cc1ccccc1)C(=O)O)CSSC[C@H](C(=O)N[C@H](Cc1cnc[nH]1)C(=O)N1CCC[C@@H]1C(=O)N[C@H](Cc1ccccc1)C(=O)O)NC(=O)[C@@H](Cc1ccc(O)cc1)NC(=O)[C@H]1C[C@H](CN1C(=O)[C@@H](CCCNC(=N)N)NC(=O)CNC)SS2 [bis c[Sar1-Arg2-MPc3-Tyr4-Cys5-His6-Pro7-Phe8]parallel]
8 | 65 nM | CNCC(=O)N[C@@H](CCCN=C(N)N)C(=O)N[C@H]1CSSC[C@@H](C(=O)N[C@@H](Cc2c[nH]cn2)C(=O)N2CCC[C@H]2C(=O)N[C@@H](Cc2ccccc2)C(=O)O)NC(=O)[C@H](Cc2ccc(O)cc2)NC(=O)[C@@H](NC(=O)[C@H](CCCN=C(N)N)NC(=O)CNC)CSSC[C@@H](C(=O)N[C@@H](Cc2c[nH]cn2)C(=O)N2CCC[C@H]2C(=O)N[C@@H](Cc2ccccc2)C(=O)O)NC(=O)[C@H](Cc2ccc(O)cc2)NC1=O [bis-c[Sar1-Arg2-Cys3-Tyr4-Cys5-His6-Pro7-Phe8](antiparallel)] (I: H-[Sar]RCYCHPF-OH / II: H-[Sar]RCYCHPF-OH; disulfide I:3-II:5, I:5-II:3)
